According to US9593305B2, “Differentiation of pluripotent stem cells” (Janssen Biotech, Inc., priority 2008, dated 2017):

Test system: H1 human embryonic stem cells
Assay: Secondary assay: panel of compounds with growth factor combinations and muscimol, no activin A (Example 6, Table 5)
Format: cell-based
Settings: for Cell Number, % of positive control / Cell Number, Average Total Cell Number / Sox17 Expression, % of positive control / Sox17 Expression, Average Total Intensity: no AA (with Wnt3a)
Method: Clusters of H1 human embryonic stem cells were grown on reduced growth factor […]™ (Invitrogen; Cat #356231)-coated tissue culture plastic. Cells were passaged using collagenase (Invitrogen; Cat #17104-019) treatment and gentle scraping, washed to remove residual enzyme, and plated with even dispersal at a ratio of 1:1 (surface area) on reduced growth factor […]™-coated 96-well black plates (Packard ViewPlates; PerkinElmer; Cat #6005182) using volumes of 100 μl/well. Cells were allowed to attach as clusters and then recover log phase growth over a 1 to 3 day period, feeding daily with MEF-conditioned medium supplemented with 8 ng/ml bFGF (R&D Systems; Cat #233-FB). Plates were maintained at 37° C., 5% CO2 in a humidified box throughout the duration of the assay. Stocks of growth factors purchased from R&D Systems were EGF (Cat #236-EG), FGF4 (Cat #235-F4), PDGF-A (Cat #221-AA), PDGF-D (Cat #1159-SB), PDGF-A/B (Cat #222-AB), and VEGF (Cat #293-VE). […] All growth factors were solubilized in PBS with 0.1% BSA (Sigma; Cat #A7888) and stored frozen at −80° C. […] Cat #D2650) and stored frozen at −80° C. Compounds were available as 5 mM stocks in 96-well plate format, solubilized in 100% DMSO and stored at −80° C. Compounds were further diluted to an intermediate concentration of 0.2 mM in 50 mM HEPES (Invitrogen; Cat #15630-080), 20% DMSO and stored at 4° C. All growth factors and inhibitors were prepared in a deep well, 96-well polypropylene plate, diluted to 5× intermediate stocks in DMEM:F12 base medium at the beginning of assay and stored at 4° C. A secondary screening assay was conducted, testing in triplicate and feeding on alternate days over the four-day assay timeframe. Assays were initiated by aspirating culture medium from each well followed by three washes in PBS to remove residual growth factors and serum. Test volumes of 80 μl per well were added back containing DMEM:F12 base medium (Invitrogen; Cat #11330-032) supplemented with 0.625% FCS (HyClone; […] All remaining growth factors were tested at a final assay concentration of 50 ng/ml (EGF, FGF4, PDGF-A, PDGF-A/B, VEGF). […] At the conclusion of four-days of culture, assay plates were washed twice with PBS, fixed with 4% paraformaldehyde (Alexis Biochemical; Cat #ALX-350-011) at room temperature for 20 minutes, then washed three times with PBS and permeabilized with 0.5% Triton X-100 (Sigma; Cat #T8760-2) for 20 minutes at room temperature. Cells were washed again three times with PBS and blocked with 4% chicken serum (Invitrogen; Cat #16110082) in PBS for 30 minutes at room temperature. Primary antibody (goat anti-human SOX17; R&D Systems; cat #AF1924) was diluted 1:100 in 4% chicken serum and added to each well for one hour at room temperature. Alexa Fluor 488 conjugated secondary antibody (chicken anti-goat IgG; Molecular Probes; Cat #AZ1467) was diluted 1:200 in PBS and added to each sample well after washing three times with PBS. To counterstain nuclei, 4 μg/ml Hoechst 33342 (Invitrogen; Cat #H3570) was added for ten minutes at room temperature. Plates were washed once with PBS and left in 100 μl/well PBS for imaging. Imaging was performed using an IN Cell Analyzer 1000 (GE Healthcare) utilizing the 51008bs dichroic for cells stained with Hoechst 33342 and Alexa Fluor 488. Exposure times were optimized from positive control wells and from untreated negative control wells stained with secondary antibody alone. Images from 15 fields per well were acquired to compensate for any cell loss during the bioassay and subsequent staining procedures. […] Segmentation for the nuclei was determined based on grayscale levels (baseline range 100-300) and nuclear size. Averages and standard deviations were calculated for each replicate data set. Total SOX17 protein expression was reported as total intensity or integrated intensity, defined as total fluorescence of the cell multiplied by the area of the cell. […]

[1] = EGF + FGF4 + PDGF-AB + Muscimol

SMILES	Cell Number, % of positive control (EGF) [%]	Cell Number, Average Total Cell Number (EGF)	Sox17 Expression, % of positive control (EGF) [%]	Sox17 Expression, Average Total Intensity (EGF)	Cell Number, % of positive control (EGF + FGF4) [%]	Cell Number, Average Total Cell Number (EGF + FGF4)	Sox17 Expression, % of positive control (EGF + FGF4) [%]	Sox17 Expression, Average Total Intensity (EGF + FGF4)	Cell Number, % of positive control (EGF + FGF4 + PDGF-A + Muscimol) [%]	Cell Number, Average Total Cell Number (EGF + FGF4 + PDGF-A + Muscimol)	Sox17 Expression, % of positive control (EGF + FGF4 + PDGF-A + Muscimol) [%]	Sox17 Expression, Average Total Intensity (EGF + FGF4 + PDGF-A + Muscimol)	Cell Number, % of positive control (EGF + FGF4 + PDGF-A + VEGF) [%]	Cell Number, Average Total Cell Number (EGF + FGF4 + PDGF-A + VEGF)	Sox17 Expression, % of positive control (EGF + FGF4 + PDGF-A + VEGF) [%]	Sox17 Expression, Average Total Intensity (EGF + FGF4 + PDGF-A + VEGF)	Cell Number, % of positive control (EGF + FGF4 + PDGF-AB) [%]	Cell Number, Average Total Cell Number (EGF + FGF4 + PDGF-AB)	Sox17 Expression, % of positive control (EGF + FGF4 + PDGF-AB) [%]	Sox17 Expression, Average Total Intensity (EGF + FGF4 + PDGF-AB)	further results
O=C1CCN2CCN(CC2)Cc2cc(Cl)cc(c2)Nc2ncnc(n2)-c2cncc(c2)CCCN1 [Compound 34, 5-Chloro-1,8,10,12,16,22,26,32-octaazapentacyclo[24.2.2.1˜3.7˜0.1˜9,13˜0.1˜14.18˜]tritriaconta-3(33), 4,6,9(32), 10,12,14(31), 15,17-nonaen-23-one]	124.89	13062	17.39	2.78E+07	125.58	13133	76.85	1.23E+08	116.72	12208	34.83	5.56E+07	123.36	12901	31.35	5.01E+07	119.83	12532	68.41	1.09E+08	response with growth factors (cell numbers and SOX17 expression) (2.5 μM, all growth factor combinations tested, no activin A): significant synergistic responses with all growth factors tested; Cell Number, % of positive control [1]: 151.18%; Cell Number, Average Total Cell Number [1]: 15811; Sox17 Expression, % of positive control [1]: 4.32%; Sox17 Expression, Average Total Intensity [1]: 6.90E+06; Cell Number, % of positive control (EGF + PDGF-A + VEGF): 112.84%; Cell Number, Average Total Cell Number (EGF + PDGF-A + VEGF): 11801; Sox17 Expression, % of positive control (EGF + PDGF-A + VEGF): 2.53%; Sox17 Expression, Average Total Intensity (EGF + PDGF-A + VEGF): 4.04E+06; Cell Number, % of positive control (FGF4 + PDGF-A + VEGF): 145.93%; Cell Number, Average Total Cell Number (FGF4 + PDGF-A + VEGF): 15262; Sox17 Expression, % of positive control (FGF4 + PDGF-A + VEGF): 7.18%; Sox17 Expression, Average Total Intensity (FGF4 + PDGF-A + VEGF): 1.15E+07
CCN1CCCc2cccc(c2)-c2ncnc(n2)Nc2cccc(c2)CCNC(=O)C1 [Compound 29, 18-Ethyl-3,5,7,15,18,28-hexaazatetracyclo[20.3.1.1˜2,6˜0.1˜8,12˜]octacosa-1(26), 2(28), 3,5,8(27), 9,11,22,24-nonaen-16-one]	18.84	1971	−9.00	−1.44E+07	71.10	7436	−2.72	−4.35E+06	96.30	10071	1.85	2.95E+06	84.70	8858	−4.48	−7.15E+06	62.48	6535	−4.71	−7.52E+06	Cell Number, % of positive control [1]: 13.15%; Cell Number, Average Total Cell Number [1]: 1376; Sox17 Expression, % of positive control [1]: −8.91%; Sox17 Expression, Average Total Intensity [1]: −1.42E+07; Cell Number, % of positive control (EGF + PDGF-A + VEGF): 84.91%; Cell Number, Average Total Cell Number (EGF + PDGF-A + VEGF): 8880; Sox17 Expression, % of positive control (EGF + PDGF-A + VEGF): −5.34%; Sox17 Expression, Average Total Intensity (EGF + PDGF-A + VEGF): −8.53E+06; Cell Number, % of positive control (FGF4 + PDGF-A + VEGF): 77.89%; Cell Number, Average Total Cell Number (FGF4 + PDGF-A + VEGF): 8146; Sox17 Expression, % of positive control (FGF4 + PDGF-A + VEGF): −3.02%; Sox17 Expression, Average Total Intensity (FGF4 + PDGF-A + VEGF): −4.82E+06
CN1CCC(=O)NCCCNc2ncccc2-c2ncnc(n2)Nc2cccc(c2)C1 [Compound 39, 9-Methyl-2,3,4,5,7,8,9,10-octahydro-16H-17,21-(azeno)-11,15-(metheno)pyrido[3,2-g][1,3,5,9,13,17]hexaazacyclotricosin-6(1H)-one]	122.85	11615	0.09	1.49E+05	110.59	10456	2.98	5.11E+06	96.28	9103	0.43	7.32E+05	84.33	7973	3.09	5.30E+06	105.47	9972	0.94	1.62E+06	Cell Number, % of positive control [1]: 111.48%; Cell Number, Average Total Cell Number [1]: 10540; Sox17 Expression, % of positive control [1]: 1.29%; Sox17 Expression, Average Total Intensity [1]: 2.22E+06; Cell Number, % of positive control (EGF + PDGF-A + VEGF): 180.34%; Cell Number, Average Total Cell Number (EGF + PDGF-A + VEGF): 17050; Sox17 Expression, % of positive control (EGF + PDGF-A + VEGF): 2.82%; Sox17 Expression, Average Total Intensity (EGF + PDGF-A + VEGF): 4.84E+06; Cell Number, % of positive control (FGF4 + PDGF-A + VEGF): 93.67%; Cell Number, Average Total Cell Number (FGF4 + PDGF-A + VEGF): 8856; Sox17 Expression, % of positive control (FGF4 + PDGF-A + VEGF): 0.41%; Sox17 Expression, Average Total Intensity (FGF4 + PDGF-A + VEGF): 7.01E+05
CCN1CC(=O)NCCCc2cncc(c2)-c2ncnc(n2)Nc2cc(Cl)cc(c2)C1 [Compound 35, 10-Chloro-14-ethyl-3,5,7,14,17,23,27-heptaazatetracyclo[19.3.1.1˜2,6˜0.1˜8,12]Theptacosa-1(25), 2(27), 3,5,8(26), 9,11,21,23-nonaen-16-one]	228.40	23887	−6.32	−1.01E+07	203.36	21268	0.85	1.36E+06	147.80	15457	43.15	6.89E+07	154.25	16132	57.04	9.11E+07	168.39	17611	8.03	1.28E+07	Cell Number, % of positive control [1]: 171.62%; Cell Number, Average Total Cell Number [1]: 17949; Sox17 Expression, % of positive control [1]: 0.96%; Sox17 Expression, Average Total Intensity [1]: 1.54E+06; Cell Number, % of positive control (EGF + PDGF-A + VEGF): 222.23%; Cell Number, Average Total Cell Number (EGF + PDGF-A + VEGF): 23242; Sox17 Expression, % of positive control (EGF + PDGF-A + VEGF): 7.72%; Sox17 Expression, Average Total Intensity (EGF + PDGF-A + VEGF): 1.23E+07; Cell Number, % of positive control (FGF4 + PDGF-A + VEGF): 153.63%; Cell Number, Average Total Cell Number (FGF4 + PDGF-A + VEGF): 16068; Sox17 Expression, % of positive control (FGF4 + PDGF-A + VEGF): 24.57%; Sox17 Expression, Average Total Intensity (FGF4 + PDGF-A + VEGF): 3.92E+07
